System: normal human lung fibroblasts
Assay: Ribosomal profiling: translational efficiency in TGFβ-treated fibroblasts
Format: cell-based
In short: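 Cells lysed on ice after a cold PBS wash containing cycloheximide. Ribosome-protected fragments and total mRNA were prepared with the ARTseq kit and sequenced by RNA-Seq. Reads were trimmed, mapped to the human genome and counted uniquely over coding regions per gene, with low-count genes excluded before differential translational-efficiency analysis.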

Substance: TGFβ
- Log2 TE EEF1A1 (ENSG00000156508, 5 replicates): 1.851
- change in translational profile of EEF1A1 caused by TGFβ (ENSG00000156508, Control vs. TGFβ): E (E = <1.5 to 2.5)
- Log2 TE NRG1 (ENSG00000157168, 5 replicates): 1.162
- change in translational profile of NRG1 caused by TGFβ (ENSG00000157168, Control vs. TGFβ): D (D = <1.0 to 1.5)
- change in translational profile of ADAMTS4 caused by TGFβ (ENSG00000158859, Control vs. TGFβ): D (D = <1.0 to 1.5)
- Log2 TE RPL8 (ENSG00000161016, 5 replicates): 1.353
- change in translational profile of RPL8 caused by TGFβ (ENSG00000161016, Control vs. TGFβ): E (E = <1.5 to 2.5)
- Log2 TE RPL26 (ENSG00000161970, 5 replicates): 1.655
- change in translational profile of RPL26 caused by TGFβ (ENSG00000161970, Control vs. TGFβ): E (E = <1.5 to 2.5)
- Log2 TE RPL29 (ENSG00000162244, 5 replicates): 1.589
- change in translational profile of RPL29 caused by TGFβ (ENSG00000162244, Control vs. TGFβ): E (E = <1.5 to 2.5)
- change in translational profile of CAMK2N1 caused by TGFβ (ENSG00000162545, Control vs. TGFβ): C (C = <−1.0 to −1.5)
- Log2 TE NFIA (ENSG00000162599, 5 replicates): −1.2934
- Log2 TE ARHGAP25 (ENSG00000163219, 5 replicates): 1.166
- change in translational profile of IGFBP7 caused by TGFβ (ENSG00000163453, Control vs. TGFβ): E (E = <1.5 to 2.5)
- Log2 TE RPL22L1 (ENSG00000163584, 5 replicates): 1.012
- change in translational profile of RPL22L1 caused by TGFβ (ENSG00000163584, Control vs. TGFβ): D (D = <1.0 to 1.5)
- Log2 TE PTX3 (ENSG00000163661, 5 replicates): −1.576
- Log2 TE RPL9 (ENSG00000163682, 5 replicates): 1.613
- change in translational profile of RPL9 caused by TGFβ (ENSG00000163682, Control vs. TGFβ): E (E = <1.5 to 2.5)
- Log2 TE TKT (ENSG00000163931, 5 replicates): 1.142
- Log2 TE GUCY1A3 (ENSG00000164116, 5 replicates): −1.932
- Log2 TE RHOBTB3 (ENSG00000164292, 5 replicates): −1.529
- change in translational profile of RHOBTB3 caused by TGFβ (ENSG00000164292, Control vs. TGFβ): B (B = <−1.5 to −2.5)
- Log2 TE TLR3 (ENSG00000164342, 5 replicates): −1.371
- Log2 TE RPS14 (ENSG00000164587, 5 replicates): 1.684
- change in translational profile of HCN1 caused by TGFβ (ENSG00000164588, Control vs. TGFβ): D (D = <1.0 to 1.5)
- Log2 TE WBSCR27 (ENSG00000165171, 5 replicates): 1.116
- change in translational profile of RPL36AL caused by TGFβ (ENSG00000165502, Control vs. TGFβ): D (D = <1.0 to 1.5)
- Log2 TE RPL27A (ENSG00000166441, 5 replicates): 2.09
- change in translational profile of RPL27A caused by TGFβ (ENSG00000166441, Control vs. TGFβ): F (F = >2.5)
- change in translational profile of RP11-382A20.3.1 caused by TGFβ (ENSG00000166503, Control vs. TGFβ): C (C = <−1.0 to −1.5)
- change in translational profile of ANKDD1A caused by TGFβ (ENSG00000166839, Control vs. TGFβ): C (C = <−1.0 to −1.5)
- Log2 TE RPL13 (ENSG00000167526, 5 replicates): 1.465
- change in translational profile of RPL13 caused by TGFβ (ENSG00000167526, Control vs. TGFβ): E (E = <1.5 to 2.5)
- Log2 TE EEF2 (ENSG00000167658, 5 replicates): 2.323
- change in translational profile of EEF2 caused by TGFβ (ENSG00000167658, Control vs. TGFβ): F (F = >2.5)
- Log2 TE RPSA (ENSG00000168028, 5 replicates): 1.359
- Log2 TE TET2 (ENSG00000168769, 5 replicates): 1.377
- Log2 TE ZNF608 (ENSG00000168916, 5 replicates): −1.59
- Log2 TE SLC25A6 (ENSG00000169100, 5 replicates): 1.909
- Log2 TE THBS3 (ENSG00000169231, 5 replicates): 1.188
- Log2 TE CA5B (ENSG00000169239, 5 replicates): −1.791
- change in translational profile of CA5B caused by TGFβ (ENSG00000169239, Control vs. TGFβ): B (B = <−1.5 to −2.5)
- Log2 TE KIAA1024 (ENSG00000169330, 5 replicates): 2.216
- change in translational profile of KIAA1024 caused by TGFβ (ENSG00000169330, Control vs. TGFβ): F (F = >2.5)
- Log2 TE CRTAP (ENSG00000170275, 5 replicates): 1.022
- Log2 TE TMC7 (ENSG00000170537, 5 replicates): 1.745
- Log2 TE MURC (ENSG00000170681, 5 replicates): 3.678
- change in translational profile of MURC caused by TGFβ (ENSG00000170681, Control vs. TGFβ): F (F = >2.5)
- change in translational profile of HTRA3 caused by TGFβ (ENSG00000170801, Control vs. TGFβ): C (C = <−1.0 to −1.5)
- Log2 TE RPS9 (ENSG00000170889, 5 replicates): 1.6139
- Log2 TE PDGFD (ENSG00000170962, 5 replicates): −1.029
- Log2 TE PDE7B (ENSG00000171408, 5 replicates): −2.782
- change in translational profile of PDE7B caused by TGFβ (ENSG00000171408, Control vs. TGFβ): A (A = <−2.5)
- Log2 TE ZNF581 (ENSG00000171425, 5 replicates): 1.45
- Log2 TE LPAR3 (ENSG00000171517, 5 replicates): −2.387
- change in translational profile of LPAR3 caused by TGFβ (ENSG00000171517, Control vs. TGFβ): A (A = <−2.5)
- Log2 TE CTPS (ENSG00000171793, 5 replicates): 1.08

Source: US9993494B2, “Compositions and methods for treating fibrotic disease” (eFFECTOR Therapeutics, Inc., priority 2014, dated 2018)
